Experimental findings from US20230279024A1, “TRIAZINE COMPOUND AND COMPOSITION AND USE THEREOF” (BEIJING FINDCURE BIOSCIENCES, LTD., priority 2020, published 2023) are described below.

Molecules are shown by their SMILES.

In general, IC50 refers to the concentration that inhibits the measured activity by half.

The target of one series is AXL (h) kinase (Homo sapiens (Human), UniProt P30530). Briefly: AXL (h) kinase activity test (EZ Reader mobility shift, FLPeptide30). Conditions: ATP 100 μM, AXL 1 nM. The series is classed as biochemical. The protocol:
The effect of the disclosed compounds as protein kinase inhibitors can be evaluated by the following experiments. The AXL (h) kinase activity of the compounds of the invention is tested by the following methods:
Reagents used in the experiment were AXL (Carna Bioscience, Cat No.: 08-107) and FLPeptide30 (PerkinElmer, Cat No.: 760430). The instruments involved were thermotank (Thermo Scientific), oscillator (QILINBEIER), EZ Reader (PerkinElmer, Cat No.: 122919), Non-contact stage pipetting system (Labcyte Inc., Cat No.: Echo 550), and non-contact nanoliter pipetting system (TECAN, Cat No.: EVO200).
Compound dilution: 1) Dissolve the compound in DMSO to the appropriate concentration; 2) Using TECAN EVO200 to dilute 10 concentrations in 384 microplates by three times gradient, the highest concentration is 1 mM; Echo550 was used to transfer 20 nL solution from the dilution plate to the test plate.
2) Add 15 μL solution 1 to each well of the test plate and incubate at room temperature for 30 minutes.
4) Add 5 μL solution 2 to start the reaction, and the final volume of each well is 20 μL.
5) Incubated at 25° C. for 90 min, and then added 75 μL stop solution (containing 0.5 M EDTA) to terminate the reaction.
6) The sample of each well was analyzed using EZ reader.
1) Based on the measured conversion rate (CR), the Remaining Activity (%) of the kinase was calculated according to the following function:
2) XLFit (Equation 201) software was used to fit IC50.
The above methods can be used to obtain the inhibitory IC50 and/or inhibitory constant Ki.

For series [1], the target named is T1, CYP3A4 (Homo sapiens (Human), UniProt P08684). The note with it: hepatocytes, 2 days, 10 μM. The protocol:
(§1) Cryopreservation of human primary hepatocytes was resuscitated in medium after take out from liquid nitrogen. […] Plates were incubated at 37° C. and 5% CO2 for 4-6 hours to confirm the formation of monolayer cells attached to the wall. Then the adherent culture medium was changed into hepatocyte culture medium and the culture was continued overnight.
After the test compound and positive control inducer were co-incubated with cells, the medium was removed and mercaptoethanol was added for cell lysis. Total RNA in cells was extracted with RNA extraction kit, and then transcribed into cDNA with cDNA reverse transcription kit. The 10 μL cDNA template was taken and analyzed on the fluorescence quantitative PCR instrument to obtain the Ct value.
The gene expression data were corrected by internal reference 18S, and the relative expression differences were determined by the method of ΔΔCt commonly used in fluorescence quantitative PCR.
The ΔCt, ΔΔCt and relative expression difference values of the target genes were calculated according to the following formula:
ΔCt=Ct value of target gene−Ct value of internal reference 18S
ΔΔCt=ΔCt of experimental group or positive control group−ΔCt of blank control group
Relative expression difference (fold of induction)=2−ΔΔ^Ct

A further series has as its system Ba/F3 AXL cells. Briefly: Cell activity test: growth inhibition of Ba/F3 AXL cell line (CTG, 72 h). In kind it is cell-based. The note with it: Mus musculus, BaF3. The protocol: This experiment was conducted by detecting the inhibitory effect of compounds on the growth of Ba/F3 AXL cell line and Ba/F3 parental cell line. Cells in logarithmic growth stage were harvested and counted by platelet counter. Trypan blue rejection method was used to detect cell viability to ensure that the cell viability was above 90%. Adjust cell concentration; 90 μL cell suspension was added to 96-well plates, respectively; Cells in 96-well plates were cultured overnight at 37° C., 5% CO2 and 95% humidity. A 10-fold drug solution was prepared, with the highest concentration of 10 μM, and a total of 9 concentrations were diluted at 3.16 times the ratio. 10 μL drug solution was added to each well of the 96-well plate inoculated with cells, and three wells were set for each drug concentration; 96-well plates were incubated at 37° C., 5% CO2 and 95% humidity for 72 h, and CTG analysis was performed. Thaw the CTG reagent and balance the cell plates to room temperature for 30 minutes. Add the same volume of CTG solution to each well and vibrate on a fixed-rail shaker for 5 minutes to crack the cells. Place the cell plates at room temperature for 20 minutes to stabilize the cold light signal and read the cold light value. The GraphPad Prism 5.0 software was used to analyze the data, and the nonlinear S-curve regression was used to fit the data to obtain the dose-effect curve, and the IC50 value was calculated accordingly. Cell survival rate (%)=(Lum drug to be tested −Lum culture medium control)/(Lum cell control−Lum culture medium control)×100%.

The target of series [2] is T1, CYP3A4. The note with it: hepatocytes, 2 days, 10 μM. The protocol:
as §1
After the test compounds and positive control inducers were co-incubated with cells, the incubation medium was removed. […] After the samples were extracted and processed, the generation of metabolites and the kinase activities of CYP1A2, 2B6 and 3A4 was quantitatively detected by LC-MS/MS, respectively.
The induction of test substance on each subenzyme was determined by detecting the generation rate of metabolites of CYP450 subenzyme substrates. The relative activity of each subenzyme was expressed as a percentage of the relative blank control, and the data were calculated according to the following formula:
Fold of induction=sample subenzyme activity/blank subenzyme activity
Relative positive control activity (PC %)=(Fold of induction of sample group—Fold of induction of blank group)/(Fold of induction of positive control group—Fold of induction of blank group)×100
The source holds these as a separate data set.

The next series has as its system CYP3A4/5. Briefly: Inhibition of human liver microsomes CYP450, 3A4/5. In kind it is in vitro ADME. The note with it: compounds 10 μM (positive control: concentration not given). In general terms: Microsomes from liver hold many membrane-bound enzymes, among them those of drug oxidation.

Chain of AXL (h) kinase (P30530 473-894): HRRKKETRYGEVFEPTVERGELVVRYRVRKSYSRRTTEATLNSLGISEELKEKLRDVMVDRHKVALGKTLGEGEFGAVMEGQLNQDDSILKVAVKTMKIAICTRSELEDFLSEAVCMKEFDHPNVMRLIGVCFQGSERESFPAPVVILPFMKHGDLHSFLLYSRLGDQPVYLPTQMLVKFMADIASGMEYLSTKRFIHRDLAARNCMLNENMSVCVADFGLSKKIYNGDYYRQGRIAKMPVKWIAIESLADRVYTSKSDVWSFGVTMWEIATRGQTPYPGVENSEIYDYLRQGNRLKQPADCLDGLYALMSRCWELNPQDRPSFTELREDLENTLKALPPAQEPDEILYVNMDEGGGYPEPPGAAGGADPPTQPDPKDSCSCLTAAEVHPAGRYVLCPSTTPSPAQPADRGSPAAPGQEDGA

On to `CC(C)(O)C(=O)N1CCC(c2cc(-c3ccc(NC(=O)c4c5n(n(-c6ccccn6)c4=O)CCCC5)cc3F)c3c(N)ncnn23)CC1` [example 29, N-(4-(4-amino-7-(1-(2-hydroxy-2-methylpropanoyl)piperidin-4-yl)pyrrolo[2,1-f][1,2,4]triazin-5-yl)-3-fluorophenyl)-2-oxo-1-(pyridin-2-yl)-1,2,4,5,6,7-hexahydropyrazolo[1,5-a]pyridine-3-carboxamide], for which the IC50 is 5 to 50 nM at AXL (h) kinase and < 5 nM with Ba/F3 AXL cells. For the same compound, the “Gene expression CYP3A4 Fold of induction” value on CYP3A4 [1] stood at 6.37. Moreover, the “Enzymatic activity CYP3A4 Fold of induction” value (“Enzymatic activity CYP3A4 Fold” for short) on CYP3A4 [2] came to 1.06.

Turning to `CC(C)C(=O)N1CCC(c2cc(-c3ccc(NC(=O)c4c5n(n(-c6ccccc6)c4=O)CCOC5)cc3)c3c(N)ncnn23)CC1` [example 3, N-(4-(4-amino-7-(1-isobutyrylpiperidin-4-yl)pyrrolo[2,1-f][1,2,4]triazin-5-yl)phenyl)-2-oxo-1-phenyl-2,4,6,7-tetrahydro-1H-pyrazolo[5,1-c][1,4]oxazine-3-carboxamide], the results for the IC50 on AXL (h) kinase and in the series with Ba/F3 AXL cells were 5 to 50 nM and < 5 nM, respectively. Besides, at CYP3A4 [1], the “Gene expression CYP3A4 Fold of induction” value was 4.40. The “Inhibitory rate (%) 3A4/5” value with CYP3A4/5 was “No inhibition”. The “Enzymatic activity CYP3A4 Fold” value on CYP3A4 [2] is reported as 0.801.

As for `Nc1ncnn2c1c(-c1ccc(NC(=O)c3c4n(n(-c5ccccn5)c3=O)CCCC4)cc1)cc2[C@H]1CC[C@H](O)CC1` [example 20, N-(4-(4-amino-7-((1r,4r)-4-hydroxycyclohexyl)pyrrole[2,1-f][1,2,4]triazin-5-yl)phenyl)-2-oxo-1-(pyridin-2-yl)-1,2,4,5,6,7-hexahydropyrazol[1,5-a]pyridine-3-carboxamide], in the series on CYP3A4/5, the “Inhibitory rate (%) 3A4/5” value was “No inhibition”. In addition, in the series with Ba/F3 AXL cells, the IC50 lay within 5 to 50 nM.

As to `CC(C)C(=O)N1CCC(c2cc(-c3ccc(NC(=O)c4c5n(n(-c6ccccc6)c4=O)CCCC5)cc3)c3c(N)ncnn23)CC1` [example 19, N-(4-(4-amino-7-(1-isobutyrylpiperidin-4-yl)pyrrolo[2,1-f][1,2,4]triazin-5-yl)phenyl)-2-oxo-1-phenyl-1,2,4,5,6,7-hexahydropyrazolo[1,5-a]pyridine-3-carboxamide], the IC50 is 5 to 50 nM on AXL (h) kinase and < 5 nM in the series on Ba/F3 AXL cells. In addition, the “Gene expression CYP3A4 Fold of induction” value at CYP3A4 [1] amounted to 284. Also, the “Enzymatic activity CYP3A4 Fold” value on CYP3A4 [2] was found to be 1.5.

Turning to `Nc1ncnn2c1c(-c1ccc(NC(=O)c3c4n(n(-c5ccccc5)c3=O)CCOC4)cc1)cc2[C@H]1CC[C@H](O)CC1` [example 7, N-(4-(4-amino-7-((1r,4r)-4-hydroxycyclohexyl)pyrrolo[2,1-f][1,2,4]triazin-5-yl)phenyl)-2-oxo-1-phenyl-2,4,6,7-tetrahydro-1H-pyrazolo[5,1-c][1,4]oxazine-3-carboxamide], the IC50 on AXL (h) kinase was < 5 nM. Further, in the series with CYP3A4/5, the “Inhibitory rate (%) 3A4/5” value was “No inhibition”.

`Nc1ncnn2c(C3CCN(C(=O)C4CC4)CC3)cc(-c3ccc(NC(=O)c4c5n(n(-c6ccccn6)c4=O)CCCC5)cc3F)c12` [example 10, N-(4-(4-amino-7-(1-(cyclopropanecarbonyl)piperidin-4-yl)pyrrolo[2,1-f][1,2,4]triazin-5-yl)-3-fluorophenyl)-2-oxo-1-(pyridin-2-yl)-1,2,4,5,6,7-hexahydropyrazolo[1,5-a]pyridine-3-carboxamide]: at CYP3A4 [1], the “Gene expression CYP3A4 Fold of induction” value is recorded as 24.7. Further, in the series on CYP3A4/5, the “Inhibitory rate (%) 3A4/5” value is “No inhibition”. In addition, the IC50 in the series with Ba/F3 AXL cells was < 5 nM. The “Enzymatic activity CYP3A4 Fold” value on CYP3A4 [2] came out at 0.779.

In the case of `Nc1ncnn2c(C3CCN(C(=O)C4CC4)CC3)cc(-c3ccc(NC(=O)c4c5n(n(-c6ccccn6)c4=O)CCCC5)cc3)c12` [example 36, N-(4-(4-amino-7-(1-(cyclopropanecarbonyl)piperidin-4-yl)pyrrolo[2,1-f][1,2,4]triazin-5-yl)phenyl)-2-oxo-1-(pyridin-2-yl)-1,2,4,5,6,7-hexahydropyrazolo[1,5-a]pyridine-3-carboxamide], the IC50 at AXL (h) kinase was 5 to 50 nM; with Ba/F3 AXL cells, < 5 nM. For the same compound, in the series with CYP3A4/5, the “Inhibitory rate (%) 3A4/5” value is “No inhibition”.

In the case of `CC(C)(F)C(=O)N1CCC(c2cc(-c3ccc(NC(=O)c4c5n(n(-c6ccccn6)c4=O)CCOC5)cc3F)c3c(N)ncnn23)CC1` [example 27, N-(4-(4-amino-7-(1-(2-fluoro-2-methylpropanoyl)piperidin-4-yl)pyrrolo[2,1-f][1,2,4]triazin-5-yl)-3-fluorophenyl)-2-oxo-1-(pyridin-2-yl)-2,4,6,7-tetrahydro-1H-pyrazolo[5,1-c][1,4]oxazine-3-carboxamide], the IC50 is 50 to 100 nM at AXL (h) kinase and 5 to 50 nM in the series on Ba/F3 AXL cells.

For `CC(C)(F)C(=O)N1CCC(c2cc(-c3ccc(NC(=O)c4c5n(n(-c6ccccn6)c4=O)CCCC5)cc3)c3c(N)ncnn23)CC1` [example 25, N-(4-(4-amino-7-(1-(2-fluoro-2-methylpropanoyl)piperidin-4-yl)pyrrolo[2,1-f][1,2,4]triazin-5-yl)phenyl)-2-oxo-1-(pyridin-2-yl)-1,2,4,5,6,7-hexahydropyrazolo[1,5-a]pyridine-3-carboxamide], the IC50 was 5 to 50 nM at AXL (h) kinase and < 5 nM in the series on Ba/F3 AXL cells.

Regarding `CC(C)(O)C(=O)N1CCC(c2cc(-c3ccc(NC(=O)c4c5n(n(-c6ccccn6)c4=O)CCCC5)cc3)c3c(N)ncnn23)CC1` [example 13, N-(4-(4-amino-7-(1-(2-hydroxy-2-methylpropanoyl)piperidin-4-yl)pyrrolo[2,1-f][1,2,4]triazin-5-yl)phenyl)-2-oxo-1-(pyridin-2-yl)-1,2,4,5,6,7-hexahydropyrazolo[1,5-a]pyridine-3-carboxamide], the IC50 on AXL (h) kinase and with Ba/F3 AXL cells was 5 to 50 nM throughout.

In the case of `CC(C)(O)C(=O)N1CCC(c2cc(-c3ccc(NC(=O)c4c5n(n(-c6ccccn6)c4=O)CCOC5)cc3F)c3c(N)ncnn23)CC1` [example 14, N-(4-(4-amino-7-(1-(2-hydroxy-2-methylpropanoyl)piperidin-4-yl)pyrrolo[2,1-f][1,2,4]triazin-5-yl)-3-fluorophenyl)-2-oxo-1-(pyridin-2-yl)-2,4,6,7-tetrahydro-1H-pyrazolo[5,1-c][1,4]oxazine-3-carboxamide], the results for the IC50 on AXL (h) kinase and in the series on Ba/F3 AXL cells were 50 to 100 nM and 5 to 50 nM, respectively.

Consider `CC(C)(O)C(=O)N1CCC(c2cc(-c3ccc(NC(=O)c4c5n(n(-c6ccccn6)c4=O)CCOC5)cc3)c3c(N)ncnn23)CC1` [example 15, N-(4-(4-amino-7-(1-(2-hydroxy-2-methylpropanoyl)piperidin-4-yl)pyrrolo[2,1-f][1,2,4]triazin-5-yl)phenyl)-2-oxo-1-(pyridin-2-yl)-2,4,6,7-tetrahydro-1H-pyrazolo[5,1-c][1,4]oxazine-3-carboxamide], for which the IC50 at AXL (h) kinase and in the series with Ba/F3 AXL cells was 5 to 50 nM in each case.
